Assay results published in patent publication US4278671A, “7-[2-(2-Aminothiazol-4-yl)-2-(syn)-methoxyiminoacetamido] cephalosporins” (Takeda Chemical Industries, Ltd., priority 1976, dated 1981).
Converted amounts (≈) assume the structure as drawn. Like-named read-outs stand apart in the source and are kept apart here.

What was measured:
P. vulgaris GN 4413 = test: minimal inhibitory concentration against P. vulgaris GN 4413; assay type: cell-based; conditions: Proteus vulgaris, GN4413
[1] = tested on: Acinetobacter anitratus TN-1140; test: minimal inhibitory concentration against Acinetobacter anitratus TN-1140; assay type: cell-based; conditions: Acinetobacter calcoaceticus, TN1140
E. coli NIHJ = test: minimal inhibitory concentration against E. coli NIHJ; assay type: cell-based; conditions: Escherichia coli
Ps. aeruginosa Pd 1 = test: minimal inhibitory concentration against Ps. aeruginosa Pd 1; assay type: cell-based; conditions: Pseudomonas aeruginosa, PD1
E. coli T-7 = test: minimal inhibitory concentration against E. coli T-7; assay type: cell-based; conditions: Escherichia coli, T7
E. coli 0-111 = test: minimal inhibitory concentration against E. coli 0-111; assay type: cell-based, Escherichia coli; conditions: 0111
Ent. cloacae TN1282 = test: minimal inhibitory concentration against Ent. cloacae TN1282; assay type: cell-based; conditions: Enterobacter cloacae
[2] = tested on: Proteus mirabilis GN 4359; test: minimal inhibitory concentration against P. mirabilis GN 4359; assay type: cell-based; conditions: GN4359
[3] = tested on: Proteus vulgaris IFO 3988; test: minimal inhibitory concentration against P. vulgaris IFO 3988; assay type: cell-based; conditions: IFO3988
E. coli = test: protective effect on infected mice (intraperitoneal infection with E. coli); assay type: in vivo; conditions: Escherichia coli, 168 h, male mice ICR/SLC, 7 days observation
Description: *Test animals: male mice (ICR/SLC) 5 mice per group per single
Infection: intraperitoneally with E. coli
Observation period: 7 days

Ps. aeruginosa P2 = test: minimal inhibitory concentration against Ps. aeruginosa P2; assay type: cell-based; conditions: Pseudomonas aeruginosa
Proteus rettgeri GN 4733 = test: minimal inhibitory concentration against P. rettgeri GN 4733; assay type: cell-based; conditions: Providencia rettgeri, GN4733
P. rettgeri 8(TN0336) = test: minimal inhibitory concentration against P. rettgeri 8 (TN0336); assay type: cell-based, Proteus rettgeri; conditions: Providencia rettgeri
[4] = tested on: Serratia marcescens IFO 12648; test: minimal inhibitory concentration against Serr. marcescens IFO 12648; assay type: cell-based; conditions: IFO12648
[5] = tested on: Proteus morganii IFO 3168; test: minimal inhibitory concentration against P. morganii IFO 3168; assay type: cell-based; conditions: Morganella morganii, IFO3168
Ps. aeruginosa GN3407 = test: minimal inhibitory concentration against Ps. aeruginosa GN3407; assay type: cell-based; conditions: Pseudomonas aeruginosa
Klebsiella pneumoniae DT = test: minimal inhibitory concentration against K. pneumoniae DT; assay type: cell-based
[6] = tested on: Klebsiella pneumoniae GN 3835; test: minimal inhibitory concentration against K. pneumoniae GN 3835; assay type: cell-based; conditions: GN3835
Serratia TN 0024 = test: minimal inhibitory concentration against Serratia TN 0024; assay type: cell-based
[7] = tested on: Citrobacter freundii GN 1706; test: minimal inhibitory concentration against Cit. freundii GN 1706; assay type: cell-based; conditions: GN1706
[8] = tested on: Citrobacter freundii GN 99; test: minimal inhibitory concentration against Cit. freundii GN 99; assay type: cell-based; conditions: GN99
Ps. aeruginosa PM 3 = test: minimal inhibitory concentration against Ps. aeruginosa PM 3; assay type: cell-based; conditions: Pseudomonas aeruginosa, PM3
[9] = tested on: Enterobacter cloacae IFO 12937; test: minimal inhibitory concentration against Ent. cloacae IFO 12937; assay type: cell-based
[10] = Escherichia coli, E. coli 0-111, read-out: minimal inhibitory concentration
[11] = Proteus mirabilis, P. mirabilis GN 4359, read-out: minimal inhibitory concentration
[12] = Proteus vulgaris, P. vulgaris IFO 3988, read-out: minimal inhibitory concentration
[13] = P. rettgeri GN 4733, read-out: minimal inhibitory concentration
[14] = P. rettgeri 8(TN0336), read-out: minimal inhibitory concentration
[15] = Serratia marcescens, Serr. marcescens IFO 12648, read-out: minimal inhibitory concentration
[16] = P. morganii IFO 3168, read-out: minimal inhibitory concentration
[17] = Klebsiella pneumoniae, K. pneumoniae DT, read-out: minimal inhibitory concentration
[18] = Klebsiella pneumoniae, K. pneumoniae GN 3835, read-out: minimal inhibitory concentration
[19] = TN0024, Serratia TN 0024, read-out: minimal inhibitory concentration
[20] = Citrobacter freundii, Cit. freundii GN 1706, read-out: minimal inhibitory concentration
[21] = Citrobacter freundii, Cit. freundii GN 99, read-out: minimal inhibitory concentration

Row | SMILES | MIC (P. vulgaris GN 4413) [µg/mL] | MIC [1] [µg/mL] | MIC (E. coli NIHJ) [µg/mL] | MIC (Ps. aeruginosa Pd 1) [µg/mL] | MIC (E. coli T-7) [µg/mL] | MIC (E. coli 0-111; [10]) [µg/mL] | MIC (Ent. cloacae TN1282) [µg/mL] | MIC [2, 11] [µg/mL] | MIC [3, 12] [µg/mL] | ED50 (E. coli; subcutaneous (SC)) [mg/kg] | MIC (Ps. aeruginosa P2) [µg/mL] | MIC (Proteus rettgeri GN 4733; [13]) [µg/mL] | MIC (P. rettgeri 8(TN0336); [14]) [µg/mL] | MIC [4, 15] [µg/mL] | MIC [5, 16] [µg/mL] | MIC (Klebsiella pneumoniae DT; [17]) [µg/mL] | MIC [6, 18] [µg/mL] | MIC (Serratia TN 0024; [19]) [µg/mL] | MIC [7, 20] [µg/mL] | MIC [8, 21] [µg/mL] | further results
1 | CO/N=C(\C(=O)NC1C(=O)N2C(C(=O)O)=C(C)CSC12)c1csc(N)n1 (stereo not drawn) [Example 5, sodium 7-[2-(2-aminothiazol-4-yl)-2-(syn)-methoxyiminoacetamido]desacetoxycephalosporanate] | 1.56 | 12.5 | 0.78 | > 100 | 6.25 | 0.39 | 50 | 0.1 | 0.2 | 0.111 | > 100 | 0.1 | ≤ 0.012 | 12.5 | 12.5 | 0.2 | 0.2 | 1.56 | 6.25 | 3.13 | MIC (Ps. aeruginosa GN3407): > 100 µg/mL; MIC (Ps. aeruginosa PM 3): 25 µg/mL
2 | CO/N=C(\C(=O)NC1C(=O)N2C(C(=O)O)=C(CSc3nnnn3C)CSC12)c1csc(N)n1 (stereo not drawn) [Example 2] | 0.39 (≈ 0.762 µM) | 25 (≈ 48.9 µM) | 0.1 (≈ 0.195 µM) | 12.5 (≈ 24.4 µM) | 0.78 (≈ 1.52 µM) | 0.024 (≈ 0.0469 µM) | 1.56 (≈ 3.05 µM) | 0.1 (≈ 0.195 µM) | 0.024 (≈ 0.0469 µM) | 0.022 | 50 (≈ 97.7 µM) | 0.2 (≈ 0.391 µM) | ≤ 0.012 | 0.78 (≈ 1.52 µM) | 0.05 (≈ 0.0977 µM) | 0.024 (≈ 0.0469 µM) | 0.2 (≈ 0.391 µM) | 0.2 (≈ 0.391 µM) | 0.2 (≈ 0.391 µM) | 0.1 (≈ 0.195 µM) | MIC (Ps. aeruginosa GN3407): 50 µg/mL (≈ 97.7 µM); MIC (Ps. aeruginosa PM 3): 0.78 µg/mL (≈ 1.52 µM)
3 | CO/N=C(\C(=O)NC1C(=O)N2C(C(=O)O)=C(COC(C)=O)CSC12)c1csc(N)n1 (stereo not drawn) [Example 3, sodium 7-[2-(2-aminothiazol-4-yl)-2-(syn)-methoxyiminoacetamido]cephalosporanate] | 0.78 | 25 | 0.2 | 25 | 0.78 | 0.05 | 6.25 | 0.05 | 0.024 | 0.018 | 50 | 0.2 | ≤ 0.012 | 3.13 | 0.2 | 0.024 | 0.05 | 0.78 | 0.39 | 0.2 | MIC (Ps. aeruginosa GN3407): 50 µg/mL; MIC (Ps. aeruginosa PM 3): 1.56 µg/mL
4 | CO/N=C(\C(=O)NC1C(=O)N2C(C(=O)OCOC(=O)C(C)(C)C)=C(CSc3nnnn3C)CSC12)c1csc(N)n1 (stereo not drawn) [Example 15] | – | – | – | – | – | – | – | – | – | – | – | – | – | – | – | – | – | – | – | – | ED50 (E. coli; oral): 0.11 mg/kg
5 | CO/N=C(\C(=O)NC1C(=O)N2C(C(=O)O)=C(CSc3nnc(C)s3)CSC12)c1csc(N)n1 (stereo not drawn) [(a), Sodium 7-[2-(2-aminothiazol-4-yl)-2-(syn)-methoxyiminoacetamido]-3-(2-methyl-1,3,4-thiadiazol-5-yl)thiomethyl-3-cephem-4-carboxylate] | 1.56 | – | 0.2 | – | 1.56 | 0.1 | – | 0.2 | 0.1 | – | – | 0.39 | ≤ 0.012 | 0.78 | 0.1 | 0.05 | 0.39 | 0.78 | 0.78 | 0.2 | MIC ([9]; Enterobacter cloacae, Ent. cloacae IFO12937, read-out: minimum inhibitory concentration): 3.13 µg/mL
6 | CC1=C(C(=O)O)N2C(=O)[C@@H](NC(=O)[C@H](N)c3ccccc3)[C@H]2SC1 [CEX, cephalexin, reference compound] | – | – | – | – | – | – | – | – | – | – | – | – | – | – | – | – | – | – | – | – | ED50 (E. coli; oral): 2.51 mg/kg
7 | O=C(Cc1cccs1)N[C@@H]1C(=O)N2C(C(=O)[O-])=C(C[n+]3ccccc3)CS[C@H]12 [CER, cephaloridine, reference compound] | – | – | – | – | – | – | – | – | – | 1.25 | – | – | – | – | – | – | – | – | – | – | –
8 | CO/N=C(\C(=O)NC1C(=O)N2C(C(=O)O)=C(COC(N)=O)CSC12)c1csc(N)n1 (stereo not drawn) [Example 1, sodium 7-[2-(2-aminothiazol-4-yl)-2-(syn)-methoxyiminoacetamido]-3-carbamoyloxymethyl-3-cephem-4-carboxylate] | 1.56 | 6.25 | 0.1 | 50 | 0.39 | 0.024 | 6.25 | ≤ 0.02 | ≤ 0.02 | 0.015 | 25 | 0.05 | ≤ 0.012 | 1.56 | 0.39 | < 0.012 | 0.05 | 0.2 | 0.39 | 0.2 | MIC (Ps. aeruginosa GN3407): > 100 µg/mL; MIC (Ps. aeruginosa PM 3): 3.13 µg/mL
9 | CO/N=C(/C(=O)NC1C(=O)N2C(C(=O)O)=C(COC(N)=O)CSC12)c1csc(N)n1 (stereo not drawn) [compound 27, sodium 7-[(2-aminothiazol-4-yl)-α-(anti)-methoxyimino]acetamido-3-carbamoyloxymethyl-3-cephem-4-carboxylate, reference compound] | – | – | – | – | – | – | – | – | – | – | – | – | – | – | – | – | – | – | – | – | MIC (E. coli 0-111; Escherichia coli 0-111, read-out: MIC): 0.78 µg/mL; MIC ([2]; Proteus mirabilis GN 4359, read-out: MIC): 0.78 µg/mL; MIC ([3]; Proteus vulgaris IFO 3988, read-out: MIC): 0.39 µg/mL; MIC (Proteus rettgeri GN 4733; Proteus rettgeri GN 4733, read-out: MIC): 0.78 µg/mL; MIC ([9]; IFO12937, Enterobacter cloacae IFO 12937, read-out: MIC): 25 µg/mL; MIC (P. rettgeri 8(TN0336); Proteus rettgeri 8 TNO 336, read-out: MIC): < 0.2 µg/mL; MIC ([4]; Serratia marcescens IFO 12648, read-out: MIC): 12.5 µg/mL; MIC ([5]; Proteus morganii IFO 3168, read-out: MIC): 0.78 µg/mL; MIC (Klebsiella pneumoniae DT; Klebsiella pneumoniae DT, read-out: MIC): 1.56 µg/mL; MIC ([6]; Klebsiella pneumoniae GN 3835, read-out: MIC): 6.25 µg/mL; MIC (Serratia TN 0024; Serratia TN0024, read-out: MIC): 6.25 µg/mL; MIC ([7]; Citrobacter freundii GN 1706, read-out: MIC): 3.13 µg/mL; MIC ([8]; Citrobacter freundii GN 99, read-out: MIC): 1.56 µg/mL
